The values below come from PMC11054487, “Species-Specific Unbound Fraction Differences in Highly Bound PFAS: A Comparative Study across Human, Rat, and Mouse Plasma and Albumin” (Toxics, 2024).

One data set deals with rat (Wistar-Han) plasma. The data set can be described thus: Presaturation equilibrium dialysis, fraction unbound in rat plasma. The data set is classed as in vitro ADME. To be noted: 5 μM PFAS, 18 h, 37 °C, value (CV). The procedure: (§1) Each PFAS:matrix combination was assessed in quadruplicate.
(§2) The injection volume for each sample was 5 µL.
A general note: In equilibrium dialysis only unbound substance equilibrates across the membrane.

The next data set deals with rat serum albumin (RSA) (Rattus norvegicus, UniProt P02770). The data set can be described thus: Presaturation equilibrium dialysis, fraction unbound in rat serum albumin solution. Conditions: for Fraction unbound (fu) and %CV, RSA 3%: 3% rat serum albumin, value (%CV); for Fraction Unbound (fu) and Coefficient of Variance (CV), RSA: 4% rat serum albumin in PBS, 5 μM PFAS, value (CV). The method, then: (§3) The equilibrium dialysis device (EQD) HTD96 (Gales Ferry, CT, USA) was assembled according to manufacturer instructions. DPBS buffer solutions were prepared by adding PFAS with a concentration of either approximately five-fold of the estimated fu values based on initial available data or assumed to be 0.001 if no data was available. The dialysis apparatus and membranes assembled were pre-saturated (250 µL) three times in total with PFAS spiked DPBS buffer solution; twice for 1 h followed by a final 18-h pre-saturation. This same solution was used on the receiver side of the EQD. […] This 4% albumin was used in the albumin binding study to recapitulate plasma concentration, as human albumin concentration in plasma is 3.5–4.5 g/dL (530–680 µM). The matrix was diluted five-fold using DPBS for PFAS that had preliminary fu values lower than 0.01. Dimethylsulfoxide (DMSO) stock solutions of test PFAS were prepared at 500 μM and added to species-specific plasma or 4% albumin to a final concentration of 5 μM with 1% DMSO. Next, 150 μL of PFAS spiked DPBS was added to the receiver side of the membrane and 150 μL of compound spiked matrix was added to the donor side. […] Each PFAS:matrix combination was assessed in quadruplicate. For sample collection, 15 μL of buffer and 45 μL of matrix were sampled from the dialysis device into a 96-deep well plate and matrix-matched with either blank buffer or matrix. The samples were then quenched with 200 μL of cold acetonitrile containing internal standard (tolbutamide 30 nM and carbamazepine 12 nM) to precipitate proteins. Next, the plates were sealed and placed on a vortex mixer for 1 min, and then centrifuged (Beckman Coulter, Fullerton, CA, USA) at 3000 rpm for 5 min at room temperature. Lastly, the supernatant was transferred to a new 96-well plate, fully dried down under nitrogen gas, reconstituted with 200 µL of 50/50 (v/v) HPLC grade water/acetonitrile, and vortexed for 1 min prior to LC-MS/MS analysis.
Chain of rat serum albumin (RSA) (P02770 25-608): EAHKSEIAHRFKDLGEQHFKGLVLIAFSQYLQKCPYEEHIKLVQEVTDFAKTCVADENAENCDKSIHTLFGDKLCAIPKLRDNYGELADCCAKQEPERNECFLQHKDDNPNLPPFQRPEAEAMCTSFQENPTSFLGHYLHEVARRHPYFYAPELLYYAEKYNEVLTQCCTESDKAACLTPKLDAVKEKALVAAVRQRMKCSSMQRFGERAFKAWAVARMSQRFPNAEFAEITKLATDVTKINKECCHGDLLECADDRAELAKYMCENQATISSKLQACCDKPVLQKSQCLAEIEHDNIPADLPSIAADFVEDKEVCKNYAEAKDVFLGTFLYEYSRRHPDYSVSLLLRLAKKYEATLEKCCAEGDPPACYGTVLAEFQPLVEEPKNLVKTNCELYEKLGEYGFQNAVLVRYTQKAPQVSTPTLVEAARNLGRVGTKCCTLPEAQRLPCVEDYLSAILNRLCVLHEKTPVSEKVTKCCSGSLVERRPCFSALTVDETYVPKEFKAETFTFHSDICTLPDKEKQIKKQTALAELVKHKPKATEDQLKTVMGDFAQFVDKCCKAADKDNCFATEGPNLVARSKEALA
(§4) LC-MS/MS analyses were performed on a SCIEX Triple Quad 5500 mass spectrometer (SCIEX, Concord, ON, Canada) equipped with Turbo Ion Spray interface. […] All instruments were controlled and synchronized by SCIEX Analyst software (version 1.6.3). Mobile phases compositions were 0.1% formic acid in water (mobile phase A) and 0.1% formic acid in acetonitrile (mobile phase B). […] The column was equilibrated at 5% B for 0.5 min before injecting samples. The total run time for each injection was 6 min. The chromatographic separation was conducted on a Phenomenex Kinetex C18 100Å 30 × 2.1 mm column (Torrance, CA, USA) with a flow rate of 0.5 mL/min. The injection volume for each sample was 5 µL. Multiple-reaction-monitoring (MRM) mode using specific precursor/product ion transitions was used for quantification. Data processing was performed using SCIEX Analyst software (version 1.6.3).
(§5) The calculations for fu are shown in Equations (1) and (2), where D is the dilution factor and fu,d is the diluted fu shown below. All calculations are based on area ratios (analyte peak area/IS peak area), and MS responses used for calculations were all in linear ranges. […] (1) Diluted fud=Receiver Area Ratio/Donor Area Ratio (2) Undiluted fu=1/D/1/fu,d−1+1/D
(§6) Albumin concentrations for rodents have been reported in the literature as rat: 3.0 g/dL; CD-1 mice: 2.7 g/dL; C57BL/6 mice: 2.9 g/dL [53].

For data set [1], the target named is mouse serum albumin (MSA) (Mus musculus, UniProt P07724). The data set can be described thus: Presaturation equilibrium dialysis, fraction unbound in mouse serum albumin solution. To be noted: for Fraction unbound (fu) and %CV, MSA 3%: 3% mouse serum albumin, value (%CV); for Fraction Unbound (fu) and Coefficient of Variance (CV), MSA: 4% mouse serum albumin in PBS, 5 μM PFAS, value (CV). The method, then:
as §3, §4, §5, §6

For data set [2] the following is noted: humans; cited from earlier work.
A further data set deals with mouse (C57BL/6) plasma. The data set can be described thus: Presaturation equilibrium dialysis, fraction unbound in C57BL/6 mouse plasma. It counts as in vitro ADME. Conditions: 5 μM PFAS, 18 h, 37 °C, value (CV). The procedure:
as §1, §2

In another data set the test system is mouse (CD-1) plasma. The data set can be described thus: Presaturation equilibrium dialysis, fraction unbound in CD-1 mouse plasma. Conditions: 5 μM PFAS, 18 h, 37 °C, value (CV). It counts as in vitro ADME. The procedure: as §1, §2
In data set [3] the target is T1, human serum albumin (HSA) (Homo sapiens, UniProt P02768).
T1 construct: purchased Sigma-Aldrich
T1 sequence (P02768 25-609): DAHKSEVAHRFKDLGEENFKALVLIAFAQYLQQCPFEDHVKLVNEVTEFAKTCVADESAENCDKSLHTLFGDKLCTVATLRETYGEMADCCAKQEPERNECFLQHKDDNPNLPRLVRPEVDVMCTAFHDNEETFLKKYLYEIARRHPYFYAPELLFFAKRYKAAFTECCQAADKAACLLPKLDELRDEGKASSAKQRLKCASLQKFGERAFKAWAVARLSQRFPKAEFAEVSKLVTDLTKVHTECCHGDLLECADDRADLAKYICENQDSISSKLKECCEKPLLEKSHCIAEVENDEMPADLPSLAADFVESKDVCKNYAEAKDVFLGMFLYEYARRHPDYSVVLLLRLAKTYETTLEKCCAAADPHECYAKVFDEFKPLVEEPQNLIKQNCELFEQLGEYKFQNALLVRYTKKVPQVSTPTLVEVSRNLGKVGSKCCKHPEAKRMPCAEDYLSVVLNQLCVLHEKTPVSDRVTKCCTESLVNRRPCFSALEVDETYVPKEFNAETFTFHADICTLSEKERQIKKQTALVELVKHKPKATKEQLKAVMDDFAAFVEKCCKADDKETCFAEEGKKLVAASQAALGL
The data set can be described thus: Presaturation equilibrium dialysis, fraction unbound in human serum albumin solution. The data set is classed as in vitro ADME. To be noted: 4% human serum albumin in PBS, 5 μM PFAS, value (CV). The method, then:
as §1, §2

Another data set relates to human plasma. The data set can be described thus: Presaturation equilibrium dialysis, fraction unbound in human plasma. To be noted: 5 μM PFAS, 18 h, 37 °C, value (CV). It counts as in vitro ADME. The method, then: as §1, §2

Chain of mouse serum albumin (MSA) (P07724 25-608): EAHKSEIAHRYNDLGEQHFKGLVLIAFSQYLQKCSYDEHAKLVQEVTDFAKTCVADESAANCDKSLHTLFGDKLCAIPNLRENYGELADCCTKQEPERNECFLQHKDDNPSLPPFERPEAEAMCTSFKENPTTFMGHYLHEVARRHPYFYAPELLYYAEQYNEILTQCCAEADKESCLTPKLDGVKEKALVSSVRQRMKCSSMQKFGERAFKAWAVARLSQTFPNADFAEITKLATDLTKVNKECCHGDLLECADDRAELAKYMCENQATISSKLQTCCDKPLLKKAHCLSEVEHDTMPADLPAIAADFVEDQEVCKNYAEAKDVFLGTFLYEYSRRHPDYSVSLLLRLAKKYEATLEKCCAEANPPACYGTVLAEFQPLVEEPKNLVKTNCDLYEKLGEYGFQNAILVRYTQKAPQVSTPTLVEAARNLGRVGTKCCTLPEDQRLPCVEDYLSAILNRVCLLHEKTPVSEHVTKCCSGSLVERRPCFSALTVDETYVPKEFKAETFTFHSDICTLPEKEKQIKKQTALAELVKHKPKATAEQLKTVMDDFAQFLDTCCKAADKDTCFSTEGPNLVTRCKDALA

On to `O=S(=O)(O)C(F)(F)C(F)(F)C(F)(F)C(F)(F)F` [PFBS, perfluorobutanesulfonic acid], for which the “Fraction Unbound (fu) and Coefficient of Variance (CV), Rat Plasma” value (shortened to “Fraction Unbound … Rat Plasma”) with rat (Wistar-Han) plasma is 0.0542(3%). For the same compound, on rat serum albumin (RSA), the “Fraction unbound (fu) and %CV, RSA 3%” value is recorded as 0.0168 (8%); the “Fraction Unbound (fu) and Coefficient of Variance (CV), RSA” value (shortened to “Fraction Unbound … (CV), RSA”) was 0.0208(8%). Moreover, in data set [1], the “Fraction unbound (fu) and %CV, MSA 3%” value was 0.0321 (11%); the “Fraction Unbound (fu) and Coefficient of Variance (CV), MSA” value (“Fraction Unbound … (CV), MSA” below) is recorded as 0.0396(11%). Besides, in data set [2], the half-lives is reported as 26 days and the t1/2 was 26 days. Further, in the data set with mouse (C57BL/6) plasma, the “Fraction Unbound (fu) and Coefficient of Variance (CV), C57BL/6 Plasma” value (from here on “Fraction Unbound … C57BL/6 Plasma”) was 0.28(5%). Moreover, the “Fraction Unbound (fu) and Coefficient of Variance (CV), CD-1 Plasma” value (“Fraction Unbound … CD-1 Plasma” below) in the data set with mouse (CD-1) plasma is reported as 0.261(7%). Also, in data set [3], the “Fraction Unbound (fu) and Coefficient of Variance (CV), HSA” value (from here on “Fraction Unbound … HSA”) is reported as 0.056(5%).
On to `O=C(O)C(F)(F)C(F)(F)C(F)(F)C(F)(F)C(F)(F)C(F)(F)C(F)(F)C(F)(F)C(F)(F)C(F)(F)F` [PFUDA, perfluoroundecanoic acid], for which the “Fraction Unbound … Rat Plasma” value in the data set with rat (Wistar-Han) plasma is reported as 0.000349(20%). For the same compound, on rat serum albumin (RSA), the “Fraction unbound (fu) and %CV, RSA 3%” value was 0.000147 (28%); the “Fraction Unbound … (CV), RSA” value was 0.000178(28%). For the same compound, in the data set on human plasma, the “Fraction Unbound (fu) and Coefficient of Variance (CV), Human Plasma” value is 0.000419(24%). In data set [1], the “Fraction unbound (fu) and %CV, MSA 3%” value is 0.000417 (19%); the “Fraction Unbound … (CV), MSA” value is 0.000513(19%). Further, the “Fraction Unbound … CD-1 Plasma” value in the data set with mouse (CD-1) plasma is 0.000524(15%). Also, the “Fraction Unbound … HSA” value in data set [3] was 0.000417(23%).
As for `O=S(=O)(O)CCC(F)(F)C(F)(F)C(F)(F)C(F)(F)C(F)(F)C(F)(F)F` [6:2 FtS, 6:2 fluorotelomer sulfonate], in the data set with rat (Wistar-Han) plasma, the “Fraction Unbound … Rat Plasma” value was 0.0236(4%). Besides, at rat serum albumin (RSA), the “Fraction unbound (fu) and %CV, RSA 3%” value is 0.00892 (4%); the “Fraction Unbound … (CV), RSA” value is listed as 0.0111(4%). For the same compound, the “Fraction Unbound (fu) and Coefficient of Variance (CV), Human Plasma” value in the data set on human plasma is listed as 0.0197(2%). In data set [1], the “Fraction unbound (fu) and %CV, MSA 3%” value is given as 0.0091 (9%); the “Fraction Unbound … (CV), MSA” value was 0.0113(9%). Further, the “Fraction Unbound … C57BL/6 Plasma” value with mouse (C57BL/6) plasma is 0.0253(2%). The “Fraction Unbound … CD-1 Plasma” value in the data set on mouse (CD-1) plasma is on record as 0.0255(2%). For the same compound, the “Fraction Unbound … HSA” value in data set [3] is 0.00746(0%).
On to `O=C(O)C(F)(F)C(F)(F)C(F)(F)F` [PFBA, Perfluorobutanoic acid], for which the “Fraction Unbound … Rat Plasma” value with rat (Wistar-Han) plasma was 0.37(24%). Moreover, at rat serum albumin (RSA), the “Fraction unbound (fu) and %CV, RSA 3%” value is given as 0.18 (3%); the “Fraction Unbound … (CV), RSA” value is given as 0.216(3%). Besides, in data set [1], the “Fraction unbound (fu) and %CV, MSA 3%” value is reported as 0.206 (23%); the “Fraction Unbound … (CV), MSA” value is on record as 0.24(22%). Further, in data set [2], the half-lives is reported as 3 days and the t1/2 is reported as 3.1 days. Also, the “Fraction Unbound … C57BL/6 Plasma” value in the data set with mouse (C57BL/6) plasma is 0.767(2%). Also, in the data set with mouse (CD-1) plasma, the “Fraction Unbound … CD-1 Plasma” value is recorded as 0.757(6%). Also, in data set [3], the “Fraction Unbound … HSA” value is 0.15(5%).
